Test system: SEM cells
Assay: cell viability relative to DMSO control; higher = less cytotoxic
Details: 48 h
How it was run: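 NOMO1 or SEM cells were plated at 500 cells/well and P12-Ichikawa cells at 1000 cells/well in 1536-well plates (5 μl), after each leukemia line had been adapted for at least four passages in each medium. Pin dosing delivered library compounds in DMSO at 11 threefold concentrations, 47 μM to 0.79 nM. CellTiter-Glo One luminescence was read after 48 h at 37°C. Viability is reported as a per-plate percentage of DMSO wells, with cell-free wells as background.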

[1] = HPLM + 10% dialyzed FBS, 0.000781 µM
[2] = HPLM + 10% dialyzed FBS, 0.00234 µM
[3] = HPLM + 10% dialyzed FBS, 0.00702 µM
[4] = HPLM + 10% dialyzed FBS, 0.0211 µM
[5] = HPLM + 10% dialyzed FBS, 0.0632 µM
[6] = HPLM + 10% dialyzed FBS, 0.19 µM
[7] = HPLM + 10% dialyzed FBS, 0.569 µM
[8] = HPLM + 10% dialyzed FBS, 1.71 µM
[9] = HPLM + 10% dialyzed FBS, 5.12 µM
[10] = HPLM + 10% dialyzed FBS, 15.4 µM
[11] = HPLM + 10% dialyzed FBS, 46.1 µM
[12] = RPMI 5 mM glucose + 10% FBS, 0.000781 µM
[13] = RPMI 5 mM glucose + 10% FBS, 0.00234 µM
[14] = RPMI 5 mM glucose + 10% FBS, 0.00702 µM
[15] = RPMI 5 mM glucose + 10% FBS, 0.0211 µM
[16] = RPMI 5 mM glucose + 10% FBS, 0.0632 µM
[17] = RPMI 5 mM glucose + 10% FBS, 0.19 µM
[18] = RPMI 5 mM glucose + 10% FBS, 0.569 µM
[19] = RPMI 5 mM glucose + 10% FBS, 1.71 µM
[20] = RPMI 5 mM glucose + 10% FBS, 5.12 µM
[21] = RPMI 5 mM glucose + 10% FBS, 15.4 µM
[22] = RPMI 5 mM glucose + 10% FBS, 46.1 µM
[23] = RPMI 5 mM glucose + 10% dialyzed FBS, 0.000781 µM
[24] = RPMI 5 mM glucose + 10% dialyzed FBS, 0.00234 µM
[25] = RPMI 5 mM glucose + 10% dialyzed FBS, 0.00702 µM
[26] = RPMI 5 mM glucose + 10% dialyzed FBS, 0.0211 µM
[27] = RPMI 5 mM glucose + 10% dialyzed FBS, 0.0632 µM
[28] = RPMI 5 mM glucose + 10% dialyzed FBS, 0.19 µM
[29] = RPMI 5 mM glucose + 10% dialyzed FBS, 0.569 µM
[30] = RPMI 5 mM glucose + 10% dialyzed FBS, 1.71 µM
[31] = RPMI 5 mM glucose + 10% dialyzed FBS, 5.12 µM
[32] = RPMI 5 mM glucose + 10% dialyzed FBS, 15.4 µM
[33] = RPMI 5 mM glucose + 10% dialyzed FBS, 46.1 µM

Compound	cell viability [1]	cell viability [2]	cell viability [3]	cell viability [4]	cell viability [5]	cell viability [6]	cell viability [7]	cell viability [8]	cell viability [9]	cell viability [10]	cell viability [11]	cell viability [12]	cell viability [13]	cell viability [14]	cell viability [15]	cell viability [16]	cell viability [17]	cell viability [18]	cell viability [19]	cell viability [20]	cell viability [21]	cell viability [22]	cell viability [23]	cell viability [24]	cell viability [25]	cell viability [26]	cell viability [27]	cell viability [28]	cell viability [29]	cell viability [30]	cell viability [31]	cell viability [32]	cell viability [33]
CCn1nnc2c(N3CCOCC3)nc(-c3ccc(NC(=O)Nc4ccc(C(=O)N5CCN(C)CC5)cc4)cc3)nc21	109%	104%	87.4%	82.6%	61.5%	58.2%	103%	54.3%	54.1%	49.8%	41.9%	124%	116%	90.5%	81.3%	64.2%	56.2%	114%	49.5%	48.4%	46.4%	40.5%	101%	95.9%	79%	71.6%	60.3%	54.3%	123%	50.8%	49.5%	44.9%	47.8%
COc1c(Cl)cc2c([nH]c3cnccc32)c1NC(=O)c1cccnc1C	100%	116%	119%	92%	114%	103%	118%	108%	107%	103%	84.8%	–	–	–	–	–	–	–	–	–	–	–	93.6%	95.3%	108%	97.5%	110%	107%	101%	125%	106%	105%	90.1%
Cc1nc(-c2ccc(OCC(C)C)c(C#N)c2)sc1C(=O)O	110%	110%	101%	120%	115%	104%	122%	108%	106%	110%	113%	125%	112%	116%	104%	105%	104%	121%	105%	105%	122%	124%	107%	132%	121%	131%	127%	111%	106%	111%	126%	132%	138%
C[C@]12CC[C@H]3[C@@H](CC(=C)\C4=C\C(=O)\C=C/[C@]34C)[C@@H]1CCC2=O	89.7%	92.6%	96.3%	105%	107%	92.8%	94.4%	90.7%	97.8%	34.9%	64.8%	111%	90.8%	89.2%	96.9%	98%	95.3%	104%	106%	114%	36.5%	54.6%	98.1%	86.9%	96.4%	110%	103%	101%	115%	111%	115%	33.2%	59.9%
NC1=NC(=O)N2CC12 (stereo unspecified)	84.2%	79.8%	87.7%	86.3%	87.2%	76.5%	94.9%	60.6%	34.9%	3.13%	2.28%	106%	82.3%	86.8%	104%	85.1%	82.6%	85.2%	43%	25.6%	2.22%	2.07%	77.3%	79.6%	82.5%	78.7%	79.3%	69.3%	84.1%	51.4%	23.9%	1.65%	1.54%
C/C1=C2/[N]3[Co+]456([OH])<-[N]7=C1[C@@H](CCC(N)=O)C(C)(C)/C7=C/C1=[N]->4C(=C(/C)C4=[N]->5[C@@](C)([C@H]3[C@H](CC(N)=O)[C@@]2(C)CCC(=O)NC[C@@H](C)OP(=O)([O-])O[C@H]2[C@@H](O)[C@@H](n3c[n]->6c5cc(C)c(C)cc53)O[C@@H]2CO)[C@@](C)(CC(N)=O)[C@@H]4CCC(N)=O)/[C@@](C)(CC(N)=O)[C@@H]1CCC(N)=O	93.9%	90.7%	94.6%	98.2%	98.3%	94.2%	94.6%	92.8%	94.5%	73.8%	60.1%	112%	116%	104%	82.5%	113%	95.9%	99.3%	97.3%	77.1%	91.6%	79.9%	96.4%	96.6%	109%	100%	110%	95.6%	101%	101%	103%	80.4%	71%
C[C@H](NC(=O)Cc1cc(F)cc(F)c1)C(=O)N[C@H](C(=O)OC(C)(C)C)c1ccccc1	100%	96.2%	91.7%	89.2%	102%	69.9%	92.1%	85.6%	79.7%	87.9%	70.2%	103%	92.3%	98.3%	105%	107%	87.3%	96.5%	88.6%	102%	88.7%	71.4%	90.6%	91.6%	80.6%	103%	96.9%	89.2%	91.3%	79.6%	74.7%	86.9%	70.3%
CCNC(=O)Nc1ccc(Oc2ncnc(N)c2/C=N/OC)cc1Cl	96.9%	100%	99.8%	105%	110%	112%	117%	73.5%	78.5%	68.1%	83.1%	75.3%	84.1%	75.5%	78.7%	74.9%	79.5%	70.5%	37.4%	70%	44.8%	56.8%	99.5%	103%	111%	111%	108%	117%	111%	55.9%	75.4%	56%	74.7%
OC1=CC=C(C=C1)C/2=C/C3=C(OC2)C=C(O)C=C3	107%	111%	112%	109%	114%	120%	101%	84.9%	21.2%	2.3%	1.5%	108%	117%	122%	115%	109%	106%	80.8%	93.1%	23.7%	1.46%	1.13%	111%	107%	125%	90.8%	99.1%	108%	85.5%	89.1%	25%	2.21%	1.74%
COc1cc(C(=O)NC2CCN(C)CC2)ccc1Nc1ncc2c(n1)N(C1CCCC1)CCC(=O)N2C(C)C	81.4%	95.1%	119%	104%	105%	112%	6.04%	104%	94.8%	59.1%	13.5%	95.4%	106%	119%	130%	119%	120%	6.08%	98.1%	96.5%	54.2%	55.1%	83.4%	109%	117%	120%	112%	111%	5.18%	102%	96.5%	53.8%	60.8%
O=C(O)CCCCCC(=O)NN=C1CCCC1	88.6%	100%	99.5%	104%	119%	114%	114%	117%	119%	110%	104%	89.8%	99.3%	106%	104%	96.1%	104%	114%	113%	100%	108%	93.2%	100%	99.2%	111%	119%	120%	101%	111%	128%	117%	127%	110%
CN(C)CCCC1(c2ccc(F)cc2)OCc2cc(C#N)ccc21 (stereo unspecified)	94.8%	101%	103%	106%	100%	94.5%	91.7%	96.7%	83.6%	86.9%	73.6%	91.5%	99.4%	89.4%	99.1%	86.5%	96.6%	82.4%	93.1%	74.2%	90.2%	78.1%	109%	109%	106%	108%	113%	120%	84.1%	105%	70.7%	92.2%	76%
C=CC(=O)Nc1cc2c(Nc3ccc(F)c(Cl)c3)ncnc2cc1C#CC(C)(C)N1CCN(C)CC1	99.3%	107%	108%	114%	106%	104%	92.3%	87.1%	17.3%	4.78%	2.96%	112%	116%	112%	118%	105%	138%	103%	87.7%	22.2%	4.92%	4.19%	102%	104%	95.8%	97%	102%	106%	107%	87.7%	19.3%	4.98%	3.49%
COc1cc2c(cc1OC)[C@@H]1Cc3ccc(OC)c(OC)c3CN1CC2	94.1%	123%	118%	123%	114%	119%	121%	122%	117%	109%	109%	110%	108%	103%	111%	104%	109%	99.3%	93.9%	99.4%	102%	78.4%	97.9%	108%	113%	112%	129%	124%	108%	133%	122%	120%	82.2%

Source: the supplement of paper PMC11451515
